From US7390411B2, “Method for preparing a compound of interaction of active substances with a porous support using supercritical fluid” (Pierre Fabre Medicament, priority 2001, dated 2008)
≈ marks a conversion by molar mass, not a printed value.

Experiments:
Format in all cases: physicochemical
[1] = Dissolution tests on product F12511 (HPLC, 5% sodium lauryl sulfate, 2 hours)
Method: Dissolution Tests on Product F12511
Spectrophotometric detector set at 220 nm.
C8 graft column (Lichrospher 60RP-Select B), dimensions 25×0.4 cm, particle size: 5 μm.
Flow Rate: 1 ml/min Preparation of Solutions: Solution Under Examination
Introduce an amount of complex corresponding to approximately 100 mg of product F12511 into 100 ml of 5% (m/V) sodium lauryl sulfate in H2O. Subject the system to magnetic stirring in a waterbath at 37° C.±0.5° C. Withdraw 2 ml sample of this suspension after 2 hours of stirring and filter it on a Gelman GHP Acrodisc GF (R) filter.
Dilute the samples 1/5 in the mobile phase. Carry out 2 tests.
Introduce 8 mg of reference product F12511 (starting material used to prepare the complex) in a 100 ml flask and dissolve it in 1 ml of tetrahydrofuran (THF). Make up to volume with the mobile phase.
Inject 20 μl of each control solution. Measure the area of the peak of product F12511 and represent its variation as a function of concentration in the form of a graph. The correlation coefficient is>0.995. Inject 20 μl of the test solution. Measure the area of the peak of product F12511 present in the test solution, and ensure that it lies between that of T1 and of T5 in the range.
If this is not the case, perform a dilution in the solubilizing solvent and/or adjust the injection volume of the test solution.
From this, work out the concentration X (μg/ml) of the test solution.
Calculate the amount of dissolved product F12511 in mg/ml by the following formula:
[formula] • Y: injection volume of the test solution • F: dilution factor Measurements of Specific Surface Areas

[2] = Measurements of specific surface areas (BET); conditions: specific surface area
Method: The specific surface area measurements were carried out on a BET ASAP 2010 adsorption apparatus from Micrometrics.
Before the measuring phase, the sample requires a degassing step. This step consists in evacuating the cell containing the sample until a vacuum of at least 0.003 mm Hg, or approximately 0.004 mbar, is reached stably. This degassing is carried out at a temperature of 50° C. (duration: approximately 16 hours).
At the end of degassing, the cell containing the sample is filled with helium and transferred to the measuring station, where evacuation is repeated before analysis.
Processing of the Adsorption Isotherms
The specific surface area was determined in accordance with the BET theory, i.e., in accordance with the following relationship:
[formula] • W: volume of gas adsorbed (under standard temperature and pressure (STP) conditions) per unit mass of sample. • Wm: volume of gas adsorbed (under STP conditions) in a monolayer per unit mass of sample. • P0: saturation pressure. • C: constant.
The isotherm is then plotted as follows:
As a function of P/P0: we then have a straight line of which the slope and the ordinate at the origin give us C and Wm.
The specific surface area is then given by the following formula: a(m^2·g^−1)=NmNAE • E: space occupancy of the nitrogen molecule. For nitrogen at 77 K operating temperature this is generally taken to be E=0.162 nm^2. • NA: Avogadro's number. • Nm: number of moles of nitrogen adsorbed on a monolayer per unit mass of sample, calculated from Wm. The measurements are carried out within a conventional field of relative pressure in which the BET theory is valid, namely 0.05<P/P0<0.2. In order to verify the validity of this theory, one practical means is to look at the direction in which the quantity Nadsorbed. (1-P/P0) changes as a function of P/P0: it should increase continually with P/P0.
Verify the range of applicability of the BET theory in this way, and if necessary readjust the range of relative pressures.

[3] = Dissolution test ketoprofen powders (UV 260 nm); conditions: water, 37° C.
Method: Powder Analysis Protocol: Dissolution Test Operating conditions:
UV analysis at a wavelength of 260 nm.
Prepare a standard solution in H2O. Ensure that an absorbance<2 is maintained.
(§1) Execution of the Analysis:
(§2) Dissolve the powder with magnetic stirring using a stirrer bar in a waterbath at 37±0.5° C.
(§3) Withdraw 2 ml of this suspension after 2 hours of stirring and filter it on a 0.45 μm Gelman GHP filter. Carry out the UV analysis, ensuring that the absorbance is less than 2. If it is not, carry out dilution.

[4] = Dissolution test terfenadine powders (UV 259 nm); conditions: water, 37° C.
Method: Powder Analysis Protocol: Dissolution Test Operating Conditions:
UV analysis at a wavelength of 259 nm.
Prepare a standard solution in 1% (m/v) sodium lauryl sulfate in H2O. Ensure that an absorbance<2 is maintained.
as §1, §2, §3

[5] = Comparative Example 2, dissolution after two hours, 5% sodium lauryl sulfate, 37° C.
[6] = Comparative Example 1, 2 hours, 5% sodium lauryl sulfate, 37° C.

Question: Which results are given for `CCCCCCCCCCCCS[C@H](C(=O)Nc1cc(C)c(O)c(C)c1C)c1ccccc1`?
Answer: Dissolution ([1]; Comparative Example 5 (F12511 generated by SAS/ethanol), 2 hours, 5% sodium lauryl sulfate, 37° C.): 80 µg/mL; Dissolution ([1]; Comparative Example 6 (F12511 generated by SAS/DMSO), 2 hours, 5% sodium lauryl sulfate, 37° C.): 57 µg/mL; Dissolution ([1]; Comparative Example 7 (F12511 generated by RESS), 2 hours, 5% sodium lauryl sulfate, 37° C.): 8 µg/mL

Question: What does the source list for `CCCCCCCCCCCCS[C@H](C(=O)Nc1cc(C)c(O)c(C)c1C)c1ccccc1` [F12511 precipitated by RESS]?
Answer: Dissolution [1, 5]: 76 µg/mL; Dissolution ([1]; summary table, powder after precipitation or coprecipitation only, no molecular diffusion, listed as Comp. Ex. 2): 76 µg/mL; BET ([2]; Comparative Example 2): 67 m^2/g

Question: Which results are given for `CCCCCCCCCCCCS[C@H](C(=O)Nc1cc(C)c(O)c(C)c1C)c1ccccc1` [Example F12511, (S)-2′,3′,5′-trimethyl-4′-hydroxy-α-dodecylthiophenyl-acetanilide]?
Answer: Dissolution [1, 6]: 6 to 12 µg/mL; Dissolution [1, 5]: 12 µg/mL; Dissolution ([1]; Comparative Example 3, 2 hours, 5% sodium lauryl sulfate, 37° C.): 12 µg/mL; Dissolution ([1]; Comparative Example 5 (F12511 generated by SAS/ethanol), 2 hours, 5% sodium lauryl sulfate, 37° C., listed as F12511 before precipitation): ~15 µg/mL; Dissolution ([1]; Comparative Example 6 (F12511 generated by SAS/DMSO), 2 hours, 5% sodium lauryl sulfate, 37° C., listed as F12511 before precipitation): 5 µg/mL; Dissolution ([1]; Comparative Example 7 (F12511 generated by RESS), 2 hours, 5% sodium lauryl sulfate, 37° C., listed as F12511 before precipitation): ~10 µg/mL; Dissolution ([1]; Example 4 (coprecipitation SAS/DMSO with γ-cyclodextrin), 2 hours, 5% sodium lauryl sulfate, 37° C.): ~15 µg/mL; Dissolution of 2 hours, Active principle alone ([1]; F12511 alone): 12 µg/mL; solubility after 2 hours in 5% aqueous sodium lauryl sulfate solution ([1]; after 2 hours, 5% aqueous sodium lauryl sulfate): 6 µg/mL (≈ 12.8 µM); BET ([2]; Comparative Example 1): 14 m^2/g; BET ([2]; Comparative Example 2): 14 m^2/g

Question: For `CC(C(=O)O)c1cccc(C(=O)c2ccccc2)c1` (stereo not shown) [Ketoprofen], which “concentration after 2 hours of dissolution, Active principle alone” value [3] is on record?
Answer: 333 µg/mL

Question: Which Dissolution [1, 6] does the source give for `CCCCCCCCCCCCS[C@H](C(=O)Nc1cc(C)c(O)c(C)c1C)c1ccccc1` [F12511 precipitated by SAS] here?
Answer: 62 µg/mL

Question: What about the Dissolution ([1]; summary table, powder after precipitation or coprecipitation only, no molecular diffusion) of the same compound?
Answer: 62 µg/mL

Question: And the BET ([2]; Comparative Example 1)?
Answer: 54 m^2/g

Question: For `CC(C)(C)c1ccc(C(O)CCCN2CCC(C(O)(c3ccccc3)c3ccccc3)CC2)cc1` (stereo not shown) [Terfenadine], which “concentration after 2 hours of dissolution, Active principle alone” value [4] is on record?
Answer: <1 µg/mL
